From ChEMBL document CHEMBL1201862, “PubChem BioAssay data set” (2004)
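Exposure lasted 48 hours, with cells grown in 96-well plates and compounds tested at five concentrations. The concentration for 50% growth inhibition is given as GI50.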 The source made the active and inactive calls. Cut-off read from the data, not from the text of the source: active = GI50 up to about 1.1 µM and inactive = higher.

Assays:
Experiment in all cases: growth of human tumour cells (NCI), 48 h
RXF 631 = test system: RXF 631
EKVX = test system: EKVX
HT-29 = test system: HT-29
SF-539 = test system: SF-539
LOX IMVI = test system: LOX IMVI
HOP-62 = test system: HOP-62
M19-MEL = test system: M19-MEL
DMS-273 = test system: DMS-273
SF-268 = test system: SF-268
SK-MEL-28 = test system: SK-MEL-28
HOP-92 = test system: HOP-92
OVCAR-4 = test system: OVCAR-4
OVCAR-8 = test system: OVCAR-8
DLD-1 = test system: DLD-1
786-0 = test system: 786-0
Malme-3M = test system: Malme-3M
NCI-H522 = test system: NCI-H522
HCC 2998 = test system: HCC 2998
MOLT-4 = test system: MOLT-4
HL-60 = test system: HL-60
SNB-78 = test system: SNB-78
SNB-19 = test system: SNB-19
IGROV-1 = test system: IGROV-1
COLO 205 = test system: COLO 205
LXFL 529 = test system: LXFL 529
OVCAR-3 = test system: OVCAR-3
SK-MEL-2 = test system: SK-MEL-2
CCRF-CEM = test system: CCRF-CEM
SF-295 = test system: SF-295
UO-31 = test system: UO-31
SK-MEL-5 = test system: SK-MEL-5
TK-10 = test system: TK-10
KM12 = test system: KM12
SN12C = test system: SN12C
RXF 393 = test system: RXF 393
UACC-62 = test system: UACC-62
UACC-257 = test system: UACC-257
ACHN = test system: ACHN
SW-620 = test system: SW-620
HCT-15 = test system: HCT-15
NCI-H460 = test system: NCI-H460
A549 = test system: A549
KM-20L2 = test system: KM-20L2
RPMI-8226 = test system: RPMI-8226
M14 = test system: M14
OVCAR-5 = test system: OVCAR-5
K562 = test system: K562
HCT-116 = test system: HCT-116
XF498 = test system: XF498
NCI-H23 = test system: NCI-H23
U-251 = test system: U-251
SNB-75 = test system: SNB-75
SK-OV-3 = test system: SK-OV-3
NCI-H226 = test system: NCI-H226

Measured: GI50

O=C(c1ccc(NCN2C(=O)CCC2=O)cc1)c1ccc(NCN2C(=O)CCC2=O)cc1
45.2 µM: HCT-15
inactive: RXF 631 > 100 µM | EKVX > 100 µM | HT-29 > 100 µM | SF-539 > 100 µM | LOX IMVI > 100 µM | HOP-62 > 100 µM | M19-MEL > 100 µM | DMS-273 49.8 µM | SF-268 > 100 µM | SK-MEL-28 > 100 µM | HOP-92 > 100 µM | OVCAR-4 > 100 µM | OVCAR-8 > 100 µM | DLD-1 > 100 µM | 786-0 > 100 µM | Malme-3M > 100 µM | NCI-H522 > 100 µM | HCC 2998 > 100 µM | MOLT-4 > 100 µM | HL-60 18.9 µM | SNB-78 > 100 µM | SNB-19 > 100 µM | IGROV-1 > 100 µM | COLO 205 > 100 µM | LXFL 529 > 100 µM | OVCAR-3 > 100 µM | SK-MEL-2 > 100 µM | CCRF-CEM > 100 µM | SF-295 > 100 µM | UO-31 > 100 µM | SK-MEL-5 > 100 µM | TK-10 > 100 µM | KM12 > 100 µM | SN12C > 100 µM | RXF 393 > 100 µM | UACC-62 > 100 µM | UACC-257 27.7 µM | ACHN > 100 µM | SW-620 58.5 µM | NCI-H460 > 100 µM | A549 > 100 µM | KM-20L2 > 100 µM | RPMI-8226 20.4 µM | M14 > 100 µM | OVCAR-5 > 100 µM | K562 67.3 µM | HCT-116 > 100 µM | XF498 > 100 µM | NCI-H23 > 100 µM | U-251 > 100 µM

CC(C)(C)N1C(C(=O)c2ccccc2)C1c1ccccc1 (centres undefined)
inactive: RXF 631 > 100 µM | EKVX > 100 µM | HT-29 > 100 µM | SF-539 > 100 µM | LOX IMVI > 100 µM | HOP-62 > 100 µM | M19-MEL > 100 µM | DMS-273 > 100 µM | SNB-75 > 100 µM | SK-MEL-28 > 100 µM | HOP-92 > 100 µM | OVCAR-4 > 100 µM | OVCAR-8 > 100 µM | DLD-1 > 100 µM | SK-OV-3 > 100 µM | NCI-H522 > 100 µM | HCC 2998 > 100 µM | MOLT-4 > 100 µM | HL-60 > 100 µM | SNB-78 > 100 µM | SNB-19 > 100 µM | IGROV-1 > 100 µM | COLO 205 > 100 µM | LXFL 529 > 100 µM | OVCAR-3 > 100 µM | CCRF-CEM > 100 µM | SK-MEL-5 > 100 µM | TK-10 > 100 µM | KM12 > 100 µM | SN12C > 100 µM | RXF 393 > 100 µM | UACC-62 > 100 µM | UACC-257 > 100 µM | SW-620 > 100 µM | NCI-H460 > 100 µM | A549 > 100 µM | RPMI-8226 > 100 µM | M14 > 100 µM | K562 > 100 µM | NCI-H226 > 100 µM | NCI-H23 > 100 µM | U-251 > 100 µM
> 100 µM: HCT-15
